# Test results as given in PubChem BioAssay (NCI).
#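 All cell lines were grown in 96-well plates and treated with compound for 48 hours. Here, GI50 denotes the concentration required for 50% inhibition of growth. TGI denotes the concentration required for complete inhibition of growth.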
# Tests used:
# Test in all cases: DTP human tumour cell line panel, 48 h
# [1] = tested on: SNB-75 CNS
# [2] = tested on: MOLT-4 leukemia
# [3] = tested on: K-562 leukemia
# [4] = tested on: SR leukemia
# [5] = tested on: T-47D breast
# [6] = tested on: PC-3 prostate
# [7] = tested on: TK-10 renal
# [8] = tested on: HS 578T breast
# [9] = tested on: UACC-257 melanoma
# [10] = tested on: HL-60(TB) leukemia
# [11] = tested on: COLO 205 colon
# [12] = tested on: HCT-15 colon
# [13] = tested on: HCC-2998 colon
# [14] = tested on: A498 renal
# [15] = tested on: SF-295 CNS
# [16] = tested on: EKVX NSCLC
# [17] = tested on: NCI-H226 lung
# [18] = tested on: 786-0 renal
# [19] = tested on: UACC-62 melanoma
# [20] = tested on: A549 NSCLC
# [21] = tested on: SW-620 colon
# [22] = tested on: NCI/ADR-RES ovarian
# [23] = tested on: RPMI-8226 leukemia
# [24] = tested on: SNB-19 CNS
# [25] = tested on: IGROV1 ovarian
# [26] = tested on: SK-OV-3 ovarian
# [27] = tested on: CCRF-CEM leukemia
# [28] = tested on: M14 melanoma
# [29] = tested on: BT-549 breast
# [30] = tested on: ACHN renal
# [31] = tested on: KM12 colon
# [32] = tested on: HCT-116 colon
# [33] = tested on: OVCAR-4 ovarian
# [34] = tested on: SK-MEL-28 melanoma
# [35] = tested on: NCI-H23 lung
# [36] = tested on: OVCAR-8 ovarian
# [37] = tested on: LOX IMVI melanoma
# [38] = tested on: UO-31 renal
# [39] = tested on: SF-268 CNS
# [40] = tested on: MALME-3M melanoma
# [41] = tested on: SF-539 CNS
# [42] = tested on: MDA-MB-231 breast
# [43] = tested on: HOP-92 NSCLC
# [44] = tested on: HOP-62 NSCLC
# [45] = tested on: OVCAR-5 ovarian
# [46] = tested on: MDA-MB-435
# [47] = tested on: MCF7 breast
# [48] = tested on: RXF 393 renal
# [49] = tested on: U251 CNS
# [50] = tested on: NCI-H460 lung
# [51] = tested on: SK-MEL-5 melanoma
# [52] = tested on: NCI-H522 lung
# [53] = tested on: DU-145 prostate
# [54] = tested on: HT29 colon
# [55] = tested on: SK-MEL-2 melanoma
# [56] = tested on: OVCAR-3 ovarian
# [57] = tested on: SN12C renal
compound,measurement,setting,value
Fc1ccc(NC(c2ccc(F)cc2)C2CCN(CCCCc3ccccc3)CC2)cc1 (centres undefined),GI50,[1],1110 nM
same,TGI,[1],2430 nM
same,GI50,[2],1740 nM
same,TGI,[2],4370 nM
same,GI50,[3],2070 nM
same,TGI,[3],4960 nM
same,GI50,[4],1570 nM
same,TGI,[4],3890 nM
same,GI50,[5],1650 nM
same,TGI,[5],3620 nM
same,GI50,[6],1820 nM
same,TGI,[6],3760 nM
same,GI50,[7],2070 nM
same,TGI,[7],5340 nM
same,GI50,[8],1700 nM
same,TGI,[8],3900 nM
same,GI50,[9],1970 nM
same,TGI,[9],3790 nM
same,GI50,[10],1240 nM
same,TGI,[10],3540 nM
same,GI50,[11],1600 nM
same,TGI,[11],3200 nM
same,GI50,[12],1450 nM
same,TGI,[12],2890 nM
same,GI50,[13],1760 nM
same,TGI,[13],3310 nM
same,GI50,[14],671 nM
same,TGI,[14],2210 nM
same,GI50,[15],1490 nM
same,TGI,[15],2860 nM
same,GI50,[16],1700 nM
same,TGI,[16],4420 nM
same,GI50,[17],1780 nM
same,TGI,[17],3600 nM
same,GI50,[18],1470 nM
same,TGI,[18],2840 nM
same,GI50,[19],1830 nM
same,TGI,[19],3460 nM
same,GI50,[20],1910 nM
same,TGI,[20],3730 nM
same,GI50,[21],1260 nM
same,TGI,[21],2570 nM
same,GI50,[22],1700 nM
same,TGI,[22],3450 nM
same,GI50,[23],2170 nM
same,TGI,[23],4780 nM
same,GI50,[24],1990 nM
same,TGI,[24],4900 nM
same,GI50,[25],2180 nM
same,TGI,[25],5170 nM
same,GI50,[26],1860 nM
same,TGI,[26],3940 nM
same,GI50,[27],3620 nM
same,TGI,[27],9120 nM
same,GI50,[28],1590 nM
same,TGI,[28],3200 nM
same,GI50,[29],1550 nM
same,TGI,[29],2970 nM
same,GI50,[30],1680 nM
same,TGI,[30],3050 nM
same,GI50,[31],1850 nM
same,TGI,[31],3670 nM
same,GI50,[32],1410 nM
same,TGI,[32],2750 nM
same,GI50,[33],1410 nM
same,TGI,[33],3220 nM
same,GI50,[34],1760 nM
same,TGI,[34],3280 nM
same,GI50,[35],1780 nM
same,TGI,[35],3860 nM
same,GI50,[36],2050 nM
same,TGI,[36],4190 nM
same,GI50,[37],1550 nM
same,TGI,[37],2890 nM
same,GI50,[38],1080 nM
same,TGI,[38],2430 nM
same,GI50,[39],1680 nM
same,TGI,[39],3830 nM
same,GI50,[40],1400 nM
same,TGI,[40],2880 nM
same,GI50,[41],1710 nM
same,TGI,[41],3100 nM
same,GI50,[42],1580 nM
same,TGI,[42],3130 nM
same,GI50,[43],1310 nM
same,TGI,[43],3410 nM
same,GI50,[44],1450 nM
same,TGI,[44],3000 nM
same,GI50,[45],1700 nM
same,TGI,[45],4040 nM
same,GI50,[46],1600 nM
same,TGI,[46],2950 nM
same,GI50,[47],1640 nM
same,TGI,[47],3240 nM
same,GI50,[48],1720 nM
same,TGI,[48],3170 nM
same,GI50,[49],1670 nM
same,TGI,[49],3060 nM
same,GI50,[50],1710 nM
same,TGI,[50],3090 nM
same,GI50,[51],1630 nM
same,TGI,[51],3100 nM
same,GI50,[52],1650 nM
same,TGI,[52],3470 nM
same,GI50,[53],1770 nM
same,TGI,[53],3860 nM
same,GI50,[54],1400 nM
same,TGI,[54],3030 nM
same,GI50,[55],1810 nM
same,TGI,[55],3540 nM
same,GI50,[56],1570 nM
same,TGI,[56],2910 nM
same,GI50,[57],1770 nM
same,TGI,[57],3370 nM
